# Results taken from patent US20080194608A1, “6-Phenylhex-5-Enoic Acid Derivatives, Process for the Preparation Thereof, Pharmaceutical Compositions Comprising Them, and Therapeutic Uses Thereof” (priority 2005, published 2008).
# Biological target: T1, chimeric protein PPARγ-Gal4 (Homo sapiens, UniProt P37231)
# T1 construct: expressed in transfected cells; host or cells: CV-1 cells (monkey kidney cells)
# T1 sequence (P37231 238-503 limits assumed): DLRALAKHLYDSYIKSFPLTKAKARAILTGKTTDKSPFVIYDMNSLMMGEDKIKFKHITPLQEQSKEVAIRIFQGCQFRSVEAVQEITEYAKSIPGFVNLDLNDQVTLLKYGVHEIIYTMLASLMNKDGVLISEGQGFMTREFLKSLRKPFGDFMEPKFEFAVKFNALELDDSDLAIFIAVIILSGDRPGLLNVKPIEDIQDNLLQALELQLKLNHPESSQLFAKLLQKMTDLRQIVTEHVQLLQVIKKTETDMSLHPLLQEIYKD
# Experiment: PPARγ-Gal4 transactivation (luciferase reporter) test in CV-1 cells
# Format: cell-based
# Procedure: The measurement of the PPAR activation was performed according to a technique described by Lehmann et al. (J. Biol. Chem., 270, (1995), 12953-12956).
# CV-1 cells (monkey kidney cells) are cotransfected with an expression vector for the chimeric protein PPARγ-Gal4 and with a “reporter” plasmid that allows expression of the luciferase gene placed under the control of a promoter comprising Gal4 response elements.
# The cells are seeded in 96-well microplates and cotransfected using a commercial reagent with the reporter plasmid (pG5-tk-pGL3) and the expression vector for the chimeric protein (PPARγ-Gal4). After incubation for 4 hours, whole culture medium (comprising 10% foetal calf serum) is added to the wells. After 24 hours, the medium is removed and replaced with whole medium comprising the test products. The products are left in contact with the cells for 18 hours. The cells are then lysed and the luciferase activity is measured using a luminometer. A PPARγ activation factor can then be calculated by means of the activation of the expression of the reporter gene induced by the product (relative to the control cells that have received no product).
# In the absence of the PPARγ ligand binding domain (vector expressing Gal4 alone), the luciferase activity measured in the presence of an agonist is zero.
# The following transactivation result was obtained with a concentration of 10 μM on PPARγ.
# The transactivation test using the expression of a chimeric protein Gal-4-PPARγ makes it possible to determine also whether an agonist functions as a “full” agonist or as a “partial” agonist in this system.
# An agonist is “partial” in this system if it induces a weaker response, i.e. it has lower efficacy, than rosiglitazone, which is a “full” agonist. In concrete terms, in our system, the transactivation obtained at the plateau with a partial agonist will be between 20% and 50% of the maximum response (efficacy) at the plateau of rosiglitazone.
"Activation factor of the chimeric protein PPARγ-Gal4 (10 μM, CV-1 cells (monkey kidney cells), 18 hours contact, relative to control cells without agonist (=1))","Concentration to reach the maximum stimulation of the PPARγ chimeric protein (CV-1 cells, Gal-4-PPARγ transactivation test) [µM]","Emax (transactivation at the plateau relative to maximum response (efficacy) of rosiglitazone, CV-1 cells, read-out: Maximum stimulation of the PPARγ chimeric protein obtained with rosiglitazone) [%]",Structure (SMILES)
5.8,,,"COc1ccccc1OC(CCC=Cc1cc(F)ccc1OCCc1nc(-c2ccccc2)oc1C)C(=O)O (stereo not drawn) [Example 44, 6-{5-fluoro-2-[2-(5-methyl-2-phenyloxazol-4-yl)ethoxy]phenyl}-2-(2-methoxyphenoxy)hex-5-enoic acid]"
,10,19,"CCc1ccc(CCOc2ccc(F)cc2C=CCCC(Oc2ccc(C(F)(F)F)cc2)C(=O)O)nc1 (stereo not drawn) [Example 51, 6-{2-[2-(5-ethylpyridin-2-yl)ethoxy]-5-fluorophenyl)-2-(4-trifluoromethyl-phenoxy)hex-5-enoic acid]"
